# Results taken from patent US20180345047A1, “METHOD OF PROMOTING HAIR GROWTH” (Yeda Research and Development Co. Ltd., priority 2015, published 2018).
# What was measured:
# [1] = tested on: senescent epidermal cells; test: Elimination of senescent cells in the skin epidermis of p14ARF-expressing mice (SA-β-Gal, p14ARF, cleaved caspase-3 stains); format: in vivo, K5-rtTA/tet-p14 mice; settings: 75 mg/kg intraperitoneally
# Procedure: (§1) Mouse experiments: K5-rtTA/tet-p14, described in (Toakrsly-Amiel et al.) were held on a mixed C57B1/129sv background. Mice received doxycycline (2 mg/ml) in the drinking water at 3 weeks of age for activation of the p14ARF transgene. Sibling tet-p14 single transgene control mice received doxycycline for the same period. After four weeks of transgene activation, ABT-737 (75 mg/kg in 30% propylene glycol, 5% Tween 80, 3.3% dextrose in water pH 4-5) or vehicle was injected into p14ARF-expressing mice intraperitoneally for 2 or 4 consecutive days. Mice were then shaved, sacrificed and back skins were paraffin embedded for immunohistology or frozen in OCT solution for cryosectioning and SA-β-gal stains.
# Immunohistology: Immunohistology was performed according to standard procedures on 5 μm paraffin sections, using Peroxidase Substrate kits (Vector) or fluorescently labeled secondary antibodies (Jackson). Antibodies used: p14ARF (Abcam), CC3 (Cell Signaling), Ki67 (Labvision) and K15 (Santa Cruz). […] Positive cells were scored from >10 microscopic fields in each sample either by direct microscopic observation (SA-β-gal, p14) or on collected images (all other stains).
# The present inventors set out to test whether the survival signals provided by Bcl-2 family members are necessary for the survival and retention of senescent cells in tissues. […] Concomitantly, the percentage of epidermal cells in which the transgenic p14^ARF protein could be detected was reduced (FIGS. 1D-E), indicating preferred elimination of transgene-expressing cells. Increased levels of apoptosis were detected in the epidermis after 2 days of ABT-737 treatment (FIGS. 1F-G), consistent with increased apoptosis as the mechanism of senescent cell elimination. […]
# [2] = tested on: hair-follicle stem cells in the bulge; test: Hair-follicle bulge stem cell proliferation and number in p14ARF-expressing mice (Ki67/K15 stain, CD34/CD49f FACS); format: in vivo, K5-rtTA/tet-p14 mice; settings: vs vehicle
# Procedure: as §1
# Immunohistology: Immunohistology was performed according to standard procedures on 5 μm paraffin sections, using Peroxidase Substrate kits (Vector) or fluorescently labeled secondary antibodies (Jackson). Antibodies used: p14ARF (Abcam), CC3 (Cell Signaling), Ki67 (Labvision) and K15 (Santa Cruz). For Senescence-associated β-Galactosidase (SA-β-gal) stains, 10-12 μm cryosections of OCT-embedded mouse skins were fixed in 0.5% glutaraldehyde for 15 minutes, stained over night at 37° C. with 40 mM phosphate buffer pH=6 with 5 mM K4Fe(CN)6, 5 mM K3Fe(CN)6, 150 mM NaCl, 2 mM MgCl2 and 1 mg/ml X-gal, washed in PBS, fixed in 95% ethanol for 15 minutes, counterstained with nuclear fast red, dehydrated and mounted. Bright field images were collected using an Olympus CX41 and DS-Fi1 camera and processed using NIS Elements software (Nikon). Fluorescent images were taken using an Olympus FV1000 confocal microscope. Positive cells were scored from >10 microscopic fields in each sample either by direct microscopic observation (SA-β-gal, p14) or on collected images (all other stains).
# Upon p14^ARF activation in mice at 3 weeks of age nearly all hair follicles are arrested in the resting (telogen) state, and only rare stem cells in the bulge express the proliferation marker Ki67^36 (FIGS. 5H-I). […] This effect was also evident three days after treatment was stopped (FIGS. 2A-B). […]
smiles,measurement,setting,value
CN(C)CC[C@H](CSc1ccccc1)Nc1ccc(S(=O)(=O)NC(=O)c2ccc(N3CCN(Cc4ccccc4-c4ccc(Cl)cc4)CC3)cc2)cc1[N+](=O)[O-] [ABT-737],"number of senescent cells in the epidermis, determined by SA-β-Gal staining","[1]; 4 consecutive days, after 4 weeks p14ARF activation, relative to vehicle-treated mice",dramatically reduced
same,percentage of epidermal cells in which the transgenic p14ARF protein could be detected,"[1]; 2 day treatment, vs vehicle",reduced
same,levels of apoptosis in the epidermis (cleaved caspase-3),"[1]; after 2 days of treatment, vs vehicle",Increased
same,number of CD34+/CD49f high bulge stem cells,[2]; FACS of epidermal cells after 2 days of treatment,increased
same,increase in proliferating (Ki67+) hair-follicle stem cells in the bulge after end of treatment,"[2]; treated 2 days, three days after treatment was stopped",also evident
same,numbers of proliferating (Ki67+) hair-follicle stem cells in the bulge,"[2]; treatment after 2-4 weeks of p14ARF induction, 75 mg/kg intraperitoneally",increase
